The values below come from article PMC3371665 (Journal of Medicinal Chemistry, 2012).

The structures appear in SMILES notation. Bounds are passed on as bounds.

Usually Ki stands for the equilibrium dissociation constant of an inhibitor or competing ligand from its target. The inhibition is the drop in the measured response relative to a control, in per cent.

For one assay, the target named is T1, mA1AR (Mus musculus, UniProt Q60612).
T1 sequence (Q60612 1-326): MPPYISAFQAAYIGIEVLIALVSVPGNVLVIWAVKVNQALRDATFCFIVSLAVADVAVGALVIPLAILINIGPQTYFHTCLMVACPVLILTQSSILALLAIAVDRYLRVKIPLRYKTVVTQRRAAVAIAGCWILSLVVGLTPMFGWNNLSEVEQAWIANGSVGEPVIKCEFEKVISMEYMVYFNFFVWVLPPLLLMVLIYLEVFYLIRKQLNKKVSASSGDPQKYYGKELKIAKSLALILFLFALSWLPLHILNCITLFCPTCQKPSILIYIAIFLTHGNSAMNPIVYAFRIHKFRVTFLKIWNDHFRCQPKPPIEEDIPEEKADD
The conditions noted are these: read-out: Affinity (Ki) mA1; ref Melman et al.[21]; cited from earlier work.

A further assay deals with mA2AAR (Mus musculus, UniProt Q60613). Particulars: read-out: Affinity (Ki) mA2A; ref Melman et al.[21]; cited from earlier work.
A further assay deals with T2, mA3AR (Mus musculus, UniProt Q61618).
T2 sequence (Q61618 1-319): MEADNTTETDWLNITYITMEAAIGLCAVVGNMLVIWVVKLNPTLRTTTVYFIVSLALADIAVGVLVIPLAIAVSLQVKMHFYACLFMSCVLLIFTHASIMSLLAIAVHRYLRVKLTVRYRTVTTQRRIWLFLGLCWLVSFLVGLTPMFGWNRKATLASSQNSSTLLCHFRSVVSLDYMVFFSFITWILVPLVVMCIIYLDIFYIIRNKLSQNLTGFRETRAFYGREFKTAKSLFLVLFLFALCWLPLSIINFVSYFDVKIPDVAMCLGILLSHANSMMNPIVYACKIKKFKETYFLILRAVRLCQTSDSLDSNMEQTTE
The conditions noted are these: read-out: Affinity (Ki) mA3; ref Melman et al.[21]; cited from earlier work.

A further assay has as its target T3, hA1AR (Homo sapiens, UniProt P30542).
T3 sequence (P30542 1-326): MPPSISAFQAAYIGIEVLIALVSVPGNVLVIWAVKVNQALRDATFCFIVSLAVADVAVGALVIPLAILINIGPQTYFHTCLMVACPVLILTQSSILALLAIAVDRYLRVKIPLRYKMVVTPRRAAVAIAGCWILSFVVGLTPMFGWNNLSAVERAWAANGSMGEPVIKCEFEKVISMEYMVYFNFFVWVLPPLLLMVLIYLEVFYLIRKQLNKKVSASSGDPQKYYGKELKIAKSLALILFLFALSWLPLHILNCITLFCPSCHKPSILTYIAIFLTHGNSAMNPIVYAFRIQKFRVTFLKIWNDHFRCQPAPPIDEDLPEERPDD
Briefly: Radioligand binding at hA1AR.

The next assay deals with hA2AAR (Homo sapiens, UniProt P29274). The assay is described as follows: Radioligand binding at hA2AAR.
The target of assay [1] is T4, hA3AR (Homo sapiens, UniProt P0DMS8).
T4 sequence (P0DMS8 1-318): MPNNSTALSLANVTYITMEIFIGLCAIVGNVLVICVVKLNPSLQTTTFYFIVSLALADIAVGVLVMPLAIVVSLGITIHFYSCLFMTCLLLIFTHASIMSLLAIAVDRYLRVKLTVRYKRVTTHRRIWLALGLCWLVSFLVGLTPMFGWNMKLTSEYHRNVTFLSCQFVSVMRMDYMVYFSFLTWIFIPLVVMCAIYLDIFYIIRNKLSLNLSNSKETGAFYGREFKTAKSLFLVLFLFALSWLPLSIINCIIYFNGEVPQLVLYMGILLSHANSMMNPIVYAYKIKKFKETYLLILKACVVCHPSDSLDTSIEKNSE
The assay is described as follows: Radioligand binding at hA3AR.

Assay [2] deals with T4, hA3AR. It is filed as cell-based. Particulars: at 10 μM.

hA2AAR, sequence (P29274 whole entry): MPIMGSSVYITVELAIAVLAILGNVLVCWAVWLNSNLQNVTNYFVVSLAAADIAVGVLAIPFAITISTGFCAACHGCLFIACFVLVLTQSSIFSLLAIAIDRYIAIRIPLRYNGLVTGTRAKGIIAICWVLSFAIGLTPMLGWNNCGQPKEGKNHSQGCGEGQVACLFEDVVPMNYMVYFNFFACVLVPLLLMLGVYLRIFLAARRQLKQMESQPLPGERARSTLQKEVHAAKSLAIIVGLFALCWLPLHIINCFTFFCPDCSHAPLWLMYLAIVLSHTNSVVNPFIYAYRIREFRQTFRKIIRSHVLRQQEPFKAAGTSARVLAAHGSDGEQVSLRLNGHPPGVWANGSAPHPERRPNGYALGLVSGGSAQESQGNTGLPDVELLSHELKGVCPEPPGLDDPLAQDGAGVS
mA2AAR, sequence (Q60613 whole entry): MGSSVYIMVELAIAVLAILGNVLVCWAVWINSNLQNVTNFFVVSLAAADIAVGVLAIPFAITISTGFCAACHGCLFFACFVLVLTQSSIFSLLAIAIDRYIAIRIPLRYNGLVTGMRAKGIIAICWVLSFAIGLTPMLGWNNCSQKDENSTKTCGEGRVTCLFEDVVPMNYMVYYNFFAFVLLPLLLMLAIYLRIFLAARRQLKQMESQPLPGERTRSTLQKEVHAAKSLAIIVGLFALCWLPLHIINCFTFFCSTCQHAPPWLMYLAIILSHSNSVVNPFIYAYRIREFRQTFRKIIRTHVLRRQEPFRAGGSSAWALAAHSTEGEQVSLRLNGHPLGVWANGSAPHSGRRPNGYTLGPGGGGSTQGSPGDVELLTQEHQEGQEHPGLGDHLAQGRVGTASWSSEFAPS

As for `CNC(=O)[C@@]12C[C@@H]1[C@@H](n1cnc3c(NCc4cccc(I)c4)nc(Cl)nc31)[C@H](O)[C@@H]2O` [Compound 4], the values for the Ki at mA1AR, at mA2AAR and on mA3AR were 7.32 ± 1.5 nM, 5350 nM and 0.8 ± 0.14 nM, respectively.
`CNC(=O)[C@@]12C[C@@H]1[C@@H](n1cnc3c(NC)nc(C#Cc4ccccc4)nc31)[C@H](O)[C@@H]2O` [Compound 9, (1S,2R,3S,4R,5S)-2,3-Dihydroxy-N-methyl-4-(6-(methylamino)-2-(phenylethynyl)-9H-purin-9-yl)bicyclo[3.1.0]hexane-1-carboxamide]: the inhibition at 10 µM is less than 20% at hA1AR (read-out: % inhibition of radioligand binding hA1, at 10 μM, n = 3) and less than 20% at hA2AAR (read-out: % inhibition of radioligand binding hA2A, at 10 μM, n = 3).
At hA3AR [1] (Affinity (Ki) hA3, [125I]I-AB-MECA, CHO cells, n = 3–5), `CNC(=O)[C@@]12C[C@@H]1[C@@H](n1cnc3c(NC)nc(C#Cc4ccc(F)cc4)nc31)[C@H](O)[C@@H]2O` [Compound 13, (1S,2R,3S,4R,5S)-4-(2-((4-Fluorophenyl)ethynyl)-6-(methylamino)-9H-purin-9-yl)-2,3-dihydroxy-N-methylbicyclo[3.1.0]hexane-1-carboxamide] came in with a Ki of approximately 0.6 nM.
Turning to `CNC(=O)[C@@]12C[C@@H]1[C@@H](n1cnc3c(NC)nc(C#Cc4ccc(C(C)(C)C)cc4)nc31)[C@H](O)[C@@H]2O` [Compound 22, (1S,2R,3S,4R,5S)-4-(2-((4-tert-Butylphenyl)ethynyl)-6-(methylamino)-9H-purin-9-yl)-2,3-dihydroxy-N-methylbicyclo[3.1.0]hexane-1-carboxamide], on hA3AR [1], the “reduction of A3AR binding affinity compared to the H analogue 9” value was found to be 12 fold.
Take `CNC(=O)[C@@]12C[C@@H]1[C@@H](n1cnc3c(NCc4cccc(Cl)c4)nc(C#Cc4ccccc4)nc31)[C@H](O)[C@@H]2O` [Compound 27, (1S,2R,3S,4R,5S)-4-(6-(3-Chlorobenzylamino)-2-(phenylethynyl)-9H-purin-9-yl)-2,3-dihydroxy-N-methylbicyclo[3.1.0]hexane-1-carboxamide]: the Ki at hA1AR is more than 10000 nM.
Turning to `CNC(=O)[C@@]12C[C@@H]1[C@@H](n1cnc3c(NCc4cccc(Cl)c4)nc(C#Cc4ccc(F)c(F)c4)nc31)[C@H](O)[C@@H]2O` [Compound 31, (1S,2R,3S,4R,5S)-4-(6-(3-Chlorobenzylamino)-2-((3,4-difluorophenyl)ethynyl)-9H-purin-9-yl)-2,3-dihydroxy-N-methylbicyclo[3.1.0]hexane-1-carboxamide], the “agonist type at the A3AR” value at hA3AR [2] is “full agonist”.
In the case of `CNC(=O)[C@@]12C[C@@H]1[C@@H](n1cnc3c(NCc4cccc(Cl)c4)nc(C#Cc4ccc(-c5ccccc5)cc4)nc31)[C@H](O)[C@@H]2O` [Compound 34, (1S,2R,3S,4R,5S)-4-(2-(Biphenyl-4-ylethynyl)-6-(3-chlorobenzylamino)-9H-purin-9-yl)-2,3-dihydroxy-N-methylbicyclo[3.1.0]hexane-1-carboxamide], at hA1AR, the “activity at A1” value is “inactive”. The “activity at A2A” value at hA2AAR was “inactive”.
